Source: US20180296639A1, “THERAPEUTIC PEPTIDES” (Hoffmann-La Roche Inc., priority 2015, published 2018)

Tests used:
GAPDH/Siah1 association = target: T1, GAPDH/Siah1 association (Homo sapiens, UniProt P04406+Q8IUQ4); test: Co-immunoprecipitation (pull down) of GAPDH/Siah1 association in hRP; assay type: cell-based; details: high glucose 25 mM 48 hrs vs L-glucose 25 mM
T1 construct: immunoprecipitation (IP) with anti-Siah1, followed by western blot (WB) analysis of the immuno-complexes with anti-GAPDH; endogenous in cells; host or cells: primary human retinal pericytes (hRP), Cell Systems
T1 sequence (Q8IUQ4 whole entry): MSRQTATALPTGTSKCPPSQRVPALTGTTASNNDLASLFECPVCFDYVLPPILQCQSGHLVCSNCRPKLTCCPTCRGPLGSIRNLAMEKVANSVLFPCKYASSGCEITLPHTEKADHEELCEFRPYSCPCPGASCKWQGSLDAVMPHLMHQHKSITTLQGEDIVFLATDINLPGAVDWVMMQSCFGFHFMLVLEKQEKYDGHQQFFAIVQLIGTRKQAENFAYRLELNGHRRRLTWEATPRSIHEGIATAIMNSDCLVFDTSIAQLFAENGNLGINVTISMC
T1 sequence (P04406 2-335 limits assumed): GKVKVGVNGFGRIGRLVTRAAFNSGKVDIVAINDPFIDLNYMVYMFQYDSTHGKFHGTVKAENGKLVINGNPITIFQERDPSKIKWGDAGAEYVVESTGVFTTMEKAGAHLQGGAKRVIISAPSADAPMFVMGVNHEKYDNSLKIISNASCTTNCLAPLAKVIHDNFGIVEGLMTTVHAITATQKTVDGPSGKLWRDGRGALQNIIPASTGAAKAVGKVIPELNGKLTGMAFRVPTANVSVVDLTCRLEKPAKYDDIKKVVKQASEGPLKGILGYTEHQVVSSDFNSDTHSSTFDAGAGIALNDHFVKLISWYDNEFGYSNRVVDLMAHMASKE
Protocol: HRP were treated with normal glucose (5 mM), high glucose (25 mM) or L-glucose (25 mM) for 48 hrs.
HRP were treated with normal, osmotic control or high glucose plus 10 μM negative control siRNA, 10 μM Siah1-directed siRNA, 1 μM TAT-FLAG Control, 1 μM TAT-FLAG GAPDH peptide, 1 μM TAT-FLAG Siah1 peptide or 1 μM GAPDH+1 μM Siah1 peptides. Pull down assays were performed as described above. Our GAPDH peptide was designed to block the GAPDH binding site on Siah1 and the Siah1 peptide was designed to block the Siah1 binding site on GAPDH (Supplemental Table 1).
HRP Treatment: Primary cultures of human retinal pericytes (hRP) (Cell Systems; Kirkland, Wash.) were seeded into tissue culture flasks coated with attachment factor (Cell Signaling; Danvers, Mass.). HRP were grown and cultured in Dulbecco's modified Eagle's medium normal glucose (5.5 mM DMEM 1×, Life Technologies; Carlsbad, Calif.) supplemented with 10% FBS, and cell growth supplements, including antibiotics (Lonza; Basel). All cultures were incubated at 37° C., 5% CO2 and 95% relative humidity (20.9% oxygen). Passages 5 to 7 were used for all experiments. HRP identity was confirmed by immunoreactivity of neuron glial 2 (NG2) (EMD Millipore; Temecula, Calif.). […] A FLAG tag peptide sequence enables detection and quantification of these peptides (FIG. 12). […]

Siah1 = Siah1 total protein western blot in hRP; assay type: cell-based, human; details: 25 mM D-glucose 48 hrs vs 25 mM L-glucose
Protocol: HRP were treated with normal glucose (5 mM D-glucose), osmotic control (25 mM L-glucose) or high glucose (25 mM D-glucose) for 48 hrs. Siah1 total protein increased 2-fold in cultures treated with high glucose compared to those treated with the osmotic control (p=0.0136). There was no significant difference between osmotic control and normal glucose treated cells (FIG. 1A).
Nuclear Fractionation and Western Blot Analysis: HRP were treated as necessary. Cells were harvested using TrypLE Express (Life Technologies), and lysed using radioimmunoprecipitation assay (RIPA) buffer (Qiagen; Limburg, Netherlands). The NE-PER nuclear and cytoplasmic extraction reagents (Thermo Scientific; Nashville, Tenn.) were used to separate lysates into cytosolic and nuclear fractions. Samples were equilibrated for total protein concentration, subjected to 10% SDS/PAGE, and gels were transferred to nitrocellulose membranes using the iBlot system (Life Technologies). […] (β-actin was used to determine total protein concentration. Membranes were incubated in Pierce ECL western blotting substrate and developed using ChemiDoc MP (Bio-Rad; Hercules, Calif.). At least three independent experiments were used to generate western blot quantification graphs. Blots were quantified using the ImageJ 1.47v software.

[1] = system: human retinal pericytes (hRP); test: Apoptosis measurement by caspase-3 enzymatic activity in hRP; assay type: cell-based; details: 25 mM D-glucose for 72 hrs
Protocol: HRP were treated with normal glucose, L-glucose or high glucose for 48 hrs-72 hrs. […] Furthermore, GAPDH and Siah1 blocking peptides inhibited high glucose-induced hRP apoptosis (FIG. 5D Control Peptide p=0.0019, GAPDH peptide p=0.0090, Siah1 peptide p=0.0053).
HRP Treatment: Primary cultures of human retinal pericytes (hRP) (Cell Systems; Kirkland, Wash.) were seeded into tissue culture flasks coated with attachment factor (Cell Signaling; Danvers, Mass.). HRP were grown and cultured in Dulbecco's modified Eagle's medium normal glucose (5.5 mM DMEM 1×, Life Technologies; Carlsbad, Calif.) supplemented with 10% FBS, and cell growth supplements, including antibiotics (Lonza; Basel). All cultures were incubated at 37° C., 5% CO2 and 95% relative humidity (20.9% oxygen). Passages 5 to 7 were used for all experiments. HRP identity was confirmed by immunoreactivity of neuron glial 2 (NG2) (EMD Millipore; Temecula, Calif.). […] A FLAG tag peptide sequence enables detection and quantification of these peptides (FIG. 12).
Apoptosis Measurements: All apoptosis measurements were taken after 72 hrs of appropriate treatment. […] Samples were quantified using flow cytometry analysis performed at Vanderbilt's Flow Cytometry Shared Resource core laboratory. […] Activity was quantified using the EnzChek Caspase-3 Assay Kit (Life Technologies). […] Fluorescence emission at 440 nm was measured 2 hrs later.

increase in GAPDH/Siah1 association vs osmotic control (GAPDH/Siah1 association): 1.5 fold
Compound: O=C[C@H](O)[C@@H](O)[C@H](O)[C@H](O)CO [high glucose, D-glucose]
increase of Siah1 total protein vs osmotic control (Siah1): 2 fold | increase in caspase-3-enzymatic activity [1]: 3 fold
